Reference: patent US10087144B2, “Agents for use in the treatment of cardiovascular and inflammatory diseases structurally based on 4(1 H)-quinolone” (UCL Business PLC, priority 2015, dated 2018)

System: rat mesenteric arteries
Assay: Vasoreactivity in rat mesenteric arteries in vitro (relaxation of U46619-contracted vessels, tension myograph)
Conditions: for inhibition at 1 µM / inhibition at 3 µM / inhibition at 10 µM / inhibition at 30 µM / EC50: Rattus norvegicus; for inhibition at 1 µM / inhibition at 3 µM / inhibition at 10 µM / inhibition at 30 µM / % relaxation 1 μM / % relaxation 3 μM / % relaxation 10 μM / % relaxation 30 μM: U46619-contracted third-order arteries; for EC50: vasorelaxation, calculated from concentration-response curves
Experimental: Male rats (Sprague-Dawley; 200-250 g) were stunned and killed by cervical dislocation. The mesentery was removed and third-order arteries mounted in an automated tension myograph (Danish Myotechnology). After an equilibration period of 45 min, vessels were normalized and diameter determined. Following normalization, each vessel was contracted repeatedly with the thromboxane A2-mimetic 9,11-dideoxy-11^α,9^α-epoxymethano-prostaglandin F2α (U46619; 1 μM) until the response was reproducible. The vessels were then washed to restore basal tone before contracting to approximately 50% of the maximum U46619-induced response. Once a stable response to U46619 was achieved, cumulative concentration-response curves were constructed with a variety of NPR-C agonists of the invention at varying concentrations (0.001-30 μM), or vehicle (DMSO). In some studies, concentration-response curves to NPR-C agonists were conducted in the presence of the NPR-C antagonist M372049 (10 μM). Only one curve to any one agonist was constructed in any single tissue.

Compound | inhibition at 1 µM | inhibition at 3 µM | inhibition at 10 µM | inhibition at 30 µM | EC50 | % relaxation 1 μM | % relaxation 3 μM | % relaxation 10 μM | % relaxation 30 μM
CCn1cc(C(=O)NCC(=O)O)c(=O)c2ccccc21 [Compound 171, 2-(1-Ethyl-4-oxo-1,4-dihydroquinoline-3-carboxamido)acetic acid] | 2% | 2% | 8% | 20% | > 50 µM | – | – | – | –
COc1ccc(Cn2cc(C(=O)NCC(=O)O)c(=O)c3ccccc32)cc1 [Compound 174, 2-(1-(4-Methoxybenzyl)-4-oxo-1,4-dihydroquinoline-3-carboxamido)acetic acid] | 4% | 4% | 8% | 20% | > 50 µM | – | – | – | –
O=C(O)CNC(=O)c1cn(Cc2ccc(OC(F)(F)F)cc2)c2ccccc2c1=O [Compound 176, 2-(4-Oxo-1-(4-(trifluoromethoxy)benzyl)-1,4-dihydroquinoline-3-carboxamido)acetic acid] | 8% | 9% | 17% | 91% | > 50 µM | – | – | – | –
CC(C)C[C@H](NC(=O)c1cn(Cc2ccccc2)c2ccc(Br)cc2c1=O)C(=O)O [Compound 188, (S)-2-(1-benzyl-6-bromo-4-oxo-1,4-dihydroquinoline-3-carboxamido)-4-methylpentanoic acid] | 4% | 3% | 2% | 87% | > 50 µM | – | – | – | –
CC(C)C[C@H](NC(=O)c1cn(Cc2ccccc2)c2ccccc2c1=O)C(=O)O [Compound 201, (S)-2-(1-benzyl-4-oxo-1,4-dihydroquinoline-3-carboxamido)-4-methylpentanoic acid] | 0% | 0% | 0% | 82% | > 50 µM | – | – | – | –
O=C(O)CNC(=O)c1cn(Cc2ccccc2F)c2ccccc2c1=O [Compound 173, 2-(1-(2-Fluorobenzyl)-4-oxo-1,4-dihydroquinoline-3-carboxamido)acetic acid] | 4% | 13% | 15% | 79% | > 50 µM | – | – | – | –
O=C(O)CNC(=O)c1cn(Cc2ccccc2Cl)c2ccccc2c1=O [Compound 177, 2-(1-(2-Chlorobenzyl)-4-oxo-1,4-dihydroquinoline-3-carboxyamido)acetic acid] | 1% | 3% | 6% | 52% | > 50 µM | – | – | – | –
Cc1cc(C)cc(Cn2cc(C(=O)NCC(=O)O)c(=O)c3ccccc32)c1 [Compound 175, 2-(1-(3.5-Dimethylbenzyl)-4-oxo-1,4-dihydroquinoline-3-carboxamido)acetic acid] | 8% | 8% | 12% | 88% | > 50 µM | – | – | – | –
CCn1cc(C(=O)O)c(=O)c2ccc(C)nc21 [Compound 137] | – | – | – | – | – | 0% | 1% | 9% | 69%
O=C(O)CNC(=O)c1c[nH]c2ccccc2c1=O [Compound 178, 2-(4-Oxo-1,4-dihydroquinoline-3-carboxamido)acetic acid] | 5% | 6% | 11% | 16% | 17.4 µM | – | – | – | –
O=C(N[C@@H](Cc1ccccc1)C(=O)O)c1cn(Cc2ccccc2)c2ccc(Br)cc2c1=O [Compound 187, (S)-2-(1-benzyl-6-bromo-4-oxo-1,4-dihydroquinoline-3-carboxamido)-3-phenylpropanoic acid] | 31% | 57% | 93% | 100% | 1.6 µM | – | – | – | –
CC(C)CC(NC(=O)c1cnc2ccccn2c1=O)C(=O)O (centres unmarked) [Compound 204] | – | – | – | – | – | 9% | 18% | 30% | 92%
O=C(NC(Cc1ccccc1)C(=O)O)c1cnc2ccccn2c1=O (centres unmarked) [Compound 205] | – | – | – | – | – | −9% | 13% | 13% | 14%
O=C(N[C@@H](Cc1ccccc1)C(=O)O)c1cn(Cc2ccccc2)c2ccccc2c1=O [Compound 200, (S)-2-(1-benzyl-4-oxo-1,4-dihydroquinoline-3-carboxamido)-3-phenylpropanoic acid] | 4% | 10% | 67% | 89% | > 50 µM | – | – | – | –
CC(C)(C)OC(=O)n1cc(C(=O)O)c(=O)c2ccccc21 [Compound 81] | 1% | 1% | 7% | 25% | – | – | – | – | –
O=C(O)CNC(=O)c1cnc2ccccn2c1=O [Compound 121] | – | – | – | – | – | 5% | 2% | 3% | 17%
C[C@H](NC(=O)c1cn(Cc2ccccc2)c2ccccc2c1=O)C(=O)O [Compound 202, (S)-2-(1-benzyl-4-oxo-1,4-dihydroquinoline-3-carboxamido)-2-methylethanoic acid] | 2% | 3% | 20% | 36% | 20.3 µM | – | – | – | –
O=C(O)CNC(=O)c1cn(Cc2cccc(Cl)c2)c2ccccc2c1=O [Compound 172, 2-(1-(3-Chlorobenzyl)-4-oxo-1,4-dihydroquinoline-3-carboxamido)acetic acid] | 5% | 20% | 43% | 91% | > 50 µM | – | – | – | –
CC(C)C(NC(=O)c1cnc2ccccn2c1=O)C(=O)O (centres unmarked) [Compound 120] | – | – | – | – | – | 0% | 3% | 3% | 20%
O=C(O)c1cn(Cc2cccc(Cl)c2)c2ccccc2c1=O [Compound 155, 1-(3-Chlorobenzyl)-4-oxo-1,4-dihydroquinoline-3-carboxylic acid] | 4% | 6% | 10% | 25% | – | – | – | – | –
C[C@H](NC(=O)c1cn(Cc2ccccc2)c2ccc(Br)cc2c1=O)C(=O)O [Compound 189, (S)-2-(1-benzyl-6-bromo-4-oxo-1,4-dihydroquinoline-3-carboxamido)propanoic acid] | 4% | 12% | 64% | 84% | – | – | – | – | –
CC(NC(=O)c1cnc2ccccn2c1=O)C(=O)O (centres unmarked) [Compound 203] | – | – | – | – | – | 7% | 6% | 28% | 50%
